Results on 27 compounds are retold here after ChEMBL document CHEMBL4002616, “Functionalized triazines as potent HCV entry inhibitors” (Bioorg Med Chem Lett, 2017).

A word on the half-life: it is the time needed for the level to fall by half in the phase considered. Lower therefore signals fast loss. By clearance is commonly meant a measure of how efficiently the substance is removed, as volume per time. High values mean efficient removal, low ones inefficient removal.

Molecules are shown by their SMILES.

Data set [1] is described as follows: Metabolic stability in human liver microsomes assessed as parent compound remaining after 10 mins. It counts as ADME, microsome. To be noted: read-out: Stability.
Data set [2] can be described thus: (§1) Metabolic stability in rat liver microsomes assessed as parent compound remaining after 10 mins. To be noted: liver microsomes, read-out: Stability. It counts as ADME, microsome.
The test system of the next data set is Liver. The description is as §1. It is filed as ADME, microsome. The conditions noted are these: microsomes, 10 min.
The subject of the next data set is Rattus norvegicus. The experiment in a line: AUC in rat at 5 mg/kg, po. It is filed as ADME, organism-based. The conditions noted are these: in vivo, BLD = below limit of detection.
Data set [3] can be described thus: Plasma half life in rat at 2 mg/kg, iv. It counts as ADME, organism-based.
Data set [4] in a line: Clearance in rat at 2 mg/kg, iv. The conditions noted are these: in vivo. It counts as ADME, organism-based.
Data set [5] is described as follows: Volume of distribution at steady state in rat at 2 mg/kg, iv or 5 mg/kg, po. It counts as ADME, organism-based. The conditions noted are these: in vivo, read-out: Vdss.

As to `O=C(NS(=O)(=O)C1CC1)c1ccc(Nc2nc(NC3(c4ccc(Cl)cc4)CC3)nc(OCC(F)(F)F)n2)cc1`, the remaining at 10 min in data set [1] came to 100%; in data set [2] it was 85%.

On to `Cc1ccccc1S(=O)(=O)NC(=O)c1ccc(Nc2nc(NC3(c4ccc(Cl)cc4)CC3)nc(OCC(F)(F)F)n2)cc1`, for which the remaining at 10 min in data set [1] and in data set [2] was 100% in each case.

Consider `O=C(NS(=O)(=O)CCNC(=O)C1CC1)c1ccc(Nc2nc(NC3(c4ccc(Cl)cc4)CC3)nc(OCC(F)(F)F)n2)cc1`, for which the remaining at 10 min in data set [1] was 90%. Further, in the data set with Liver, the Stability result is “Not Active”.

As to `CC(C)OC(=O)NCCS(=O)(=O)NC(=O)c1ccc(Nc2nc(NC3(c4ccc(Cl)cc4)CC3)nc(OCC(F)(F)F)n2)cc1`, the results for the remaining at 10 min in data set [1] and in data set [2] were 100% and 73%, respectively.

On to `O=C(NS(=O)(=O)c1ccc(F)cc1)c1ccc(Nc2nc(NC3(c4ccc(Cl)cc4)CC3)nc(OCC(F)(F)F)n2)cc1`, for which the remaining at 10 min in data set [1] was determined as 100%; in data set [2], 99%.

As to `CCN(CC)CCS(=O)(=O)NC(=O)c1ccc(Nc2nc(NC3(c4ccc(Cl)cc4)CC3)nc(OCC(F)(F)F)n2)cc1`, the remaining at 10 min in data set [1] was 99%; in data set [2], 98%.

On to `O=C(NS(=O)(=O)CCNCc1ccccc1)c1ccc(Nc2nc(NC3(c4ccc(Cl)cc4)CC3)nc(OCC(F)(F)F)n2)cc1`, for which the remaining at 10 min is 99% in data set [1] and 100% in data set [2].

As for `CS(=O)(=O)NC(=O)c1ccc(Nc2nc(NC3(c4ccc(Cl)cc4)CC3)nc(OCC(F)(F)F)n2)cc1`, the remaining at 10 min in data set [1] was 100%; in data set [2], 85%.

For the compound `CCS(=O)(=O)NC(=O)c1ccc(Nc2nc(NC3(c4ccc(Cl)cc4)CC3)nc(OCC(F)(F)F)n2)cc1`, the remaining at 10 min in data set [1] was determined as 100%; in data set [2], 85%.

On to `CC(C)(C)OC(=O)NCCS(=O)(=O)NC(=O)c1ccc(Nc2nc(NC3(c4ccc(Cl)cc4)CC3)nc(OCC(F)(F)F)n2)cc1`, for which the figures for the remaining at 10 min in data set [1] and in data set [2] were 92% and 93%, respectively.

Consider `CNC(=O)NCCS(=O)(=O)NC(=O)c1ccc(Nc2nc(NC3(c4ccc(Cl)cc4)CC3)nc(OCC(F)(F)F)n2)cc1`, for which the remaining at 10 min in data set [1] was found to be 97%; in data set [2], 100%.

As for `COC(=O)NCCS(=O)(=O)NC(=O)c1ccc(Nc2nc(NC3(c4ccc(Cl)cc4)CC3)nc(OCC(F)(F)F)n2)cc1`, the values for the remaining at 10 min in data set [1] and in data set [2] were 90% and 100%, respectively.

In the case of `CC(C)NC(=O)NCCS(=O)(=O)NC(=O)c1ccc(Nc2nc(NC3(c4ccc(Cl)cc4)CC3)nc(OCC(F)(F)F)n2)cc1`, the results for the remaining at 10 min in data set [1] and in data set [2] were 100% and 97%, respectively.

`CC(C)NCCS(=O)(=O)NC(=O)c1ccc(Nc2nc(NC3(c4ccc(Cl)cc4)CC3)nc(OCC(F)(F)F)n2)cc1`: the remaining at 10 min in data set [1] amounted to 89%; in data set [2], 100%.

Take `CC(C)S(=O)(=O)NC(=O)c1ccc(Nc2nc(NC3(c4ccc(Cl)cc4)CC3)nc(OCC(F)(F)F)n2)cc1`: the remaining at 10 min in data set [1] was determined as 100%; in data set [2], 96%.

As to `CC(=O)NCCS(=O)(=O)NC(=O)c1ccc(Nc2nc(NC3(c4ccc(Cl)cc4)CC3)nc(OCC(F)(F)F)n2)cc1`, the remaining at 10 min is 95% in data set [1] and 100% in data set [2].

Turning to `CN(C)CCS(=O)(=O)NC(=O)c1ccc(Nc2nc(NC3(c4ccc(Cl)cc4)CC3)nc(OCC(F)(F)F)n2)cc1`, the remaining at 10 min in data set [1] amounted to 89%; in data set [2] it was 100%.

As for `O=C(NS(=O)(=O)CCN1CCOCC1)c1ccc(Nc2nc(NC3(c4ccc(Cl)cc4)CC3)nc(OCC(F)(F)F)n2)cc1`, the remaining at 10 min in data set [1] came out at 78%; in data set [2] it was 97%.

For the compound `CN(C)S(=O)(=O)NC(=O)c1ccc(Nc2nc(NC3(c4ccc(Cl)cc4)CC3)nc(OCC(F)(F)F)n2)cc1`, the remaining at 10 min in data set [1] stood at 86%; in data set [2], 76%.

With `CC(C)C(=O)NCCS(=O)(=O)NC(=O)c1ccc(Nc2nc(NC3(c4ccc(Cl)cc4)CC3)nc(OCC(F)(F)F)n2)cc1`, the remaining at 10 min in data set [1] worked out at 86%; in data set [2], 84%.

Consider `O=C(NS(=O)(=O)CCN1CCCC1)c1ccc(Nc2nc(NC3(c4ccc(Cl)cc4)CC3)nc(OCC(F)(F)F)n2)cc1`, for which the remaining at 10 min was determined as 96% in data set [1] and 98% in data set [2].

Regarding `CCCCCNc1nc(Nc2ccc([N+](=O)[O-])cc2)nc(OCC(F)(F)F)n1`, the remaining at 10 min was determined as 74% in data set [1] and 35% in data set [2].

Regarding `CC(C)(C)NC(=O)NCCS(=O)(=O)NC(=O)c1ccc(Nc2nc(NC3(c4ccc(Cl)cc4)CC3)nc(OCC(F)(F)F)n2)cc1`, the values for the remaining at 10 min in data set [1] and in data set [2] were 96% and 93%, respectively.

As for `NCCS(=O)(=O)NC(=O)c1ccc(Nc2nc(NC3(c4ccc(Cl)cc4)CC3)nc(OCC(F)(F)F)n2)cc1`, the remaining at 10 min in data set [1] and in data set [2] was 100% in each case.

Take `O=C(O)c1ccc(Nc2nc(NC3(c4ccc(Cl)cc4)CC3)nc(OCC(F)(F)F)n2)cc1`: the remaining at 10 min came to 89% in data set [1] and 99% in data set [2].

Turning to `O=C(NS(=O)(=O)c1ccccc1)c1ccc(Nc2nc(NC3(c4ccc(Cl)cc4)CC3)nc(OCC(F)(F)F)n2)cc1`, the remaining at 10 min in data set [1] and in data set [2] was 100% throughout.

As for `CC(C)(C)CNCCS(=O)(=O)NC(=O)c1ccc(Nc2nc(NC3(c4ccc(Cl)cc4)CC3)nc(OCC(F)(F)F)n2)cc1`, in the data set with Rattus norvegicus, the AUC result is reported as “Bld”. Besides, the remaining at 10 min was 89% in data set [1] and 90% in data set [2]. In data set [3], this compound had a half-life of 156 min. The compound further yielded a clearance in data set [4] of 22.5 mL/min/kg. The Vd in data set [5] amounted to 0.6 L/kg.
